We go through 15 compounds from patent US4223038A, “Bicyclic β-lactam antibiotics” (Beecham Group Limited, priority 1977, dated 1980).

Read-outs that look alike come from different tables or passages of the source.

Data set [1] deals with T1, β-lactamase, E. Coli JT4 (Escherichia coli, UniProt P62593).
T1 construct: preparation not described
Briefly: β-Lactamase inhibition, automated chromagenic substrate assay. In kind it is biochemical. The conditions noted are these: read-out: concentration of compound for 50% inhibition of enzyme (converted). On the procedure:
(§1) Method was automated hydroxyamine assay except for compounds marked + which were tested using the automated chromagenic substrate assay.
(§2) Results are presented as concentration of compounds in μg/ml for 50% inhibition of enzyme, except a percentage indicates amount of inhibition at maximum concentration of 20 μg/ml (50 μg/ml for asterisked figures).

In data set [2] the target is T2, β-lactamase, Ent. Cloacae P99 (Enterobacter cloacae, UniProt P05364).
T2 construct: preparation not described
Described as above. In kind it is biochemical. The conditions noted are these: for IC50: read-out: concentration of compound for 50% inhibition of enzyme (converted); for inhibition at 50 µg/mL: at 50 μg/ml (asterisked), read-out: amount of inhibition at maximum concentration. Here is the method:
as §1, §2

For data set [3], the target named is β-lactamase, Kleb aerog E70. The data set is described as above. In kind it is biochemical. Here is the method: as §1, §2
The target of data set [4] is T3, β-lactamase, Staph aureus Russel (Staphylococcus aureus, UniProt P00807). The data set is described as above. The note with it: at 50 μg/ml (asterisked), read-out: amount of inhibition at maximum concentration. In kind it is biochemical. On the procedure:
as §1, §2

For data set [5], the target named is T1, β-lactamase, E. Coli JT4. Briefly: β-Lactamase inhibition, automated hydroxyamine assay. In kind it is biochemical. The note with it: for inhibition at 20 µg/mL: read-out: amount of inhibition at maximum concentration; for IC50: maximum concentration 20 μg/ml, read-out: concentration of compound for 50% inhibition of enzyme (converted). Here is the method: as §1, §2

In data set [6] the target is T2, β-lactamase, Ent. Cloacae P99. The description is as above. In kind it is biochemical. The conditions noted are these: for IC50: maximum concentration 20 μg/ml, read-out: concentration of compound for 50% inhibition of enzyme (converted); for inhibition at 20 µg/mL: at 20 μg/ml, read-out: amount of inhibition at maximum concentration. On the procedure:
as §1, §2

The target in data set [7] is β-lactamase, Ps aerug A. The description is as above. In kind it is biochemical. The note with it: for amount of inhibition at maximum concentration: at 20 μg/ml. Here is the method:
as §1, §2

Data set [8] relates to β-lactamase, P. Mirab C889. Described as above. In kind it is biochemical. The note with it: for concentration of compound for 50% inhibition of enzyme: maximum concentration 20 μg/ml. On the procedure: as §1, §2
For data set [9], the target named is T3, β-lactamase, Staph aureus Russel. The data set is described as above. In kind it is biochemical. The note with it: at 20 μg/ml, read-out: amount of inhibition at maximum concentration. Here is the method: as §1, §2
A further data set relates to Escherichia coli 8. Briefly: Antibacterial activity in vivo, mouse intraperitoneal infection. The conditions noted are these: Expt R21 and R23. Here is the method:
(§3) Antibacterial activity in vivo [drawing 117] Experimental model: Mouse intraperitoneal infection Micro-organism: Escherichia coli 8 suspended in 3% AL1 mucin plus 1% carboxymethylcellulose
(§4) Dosing route: Subcutaneous
(§5) Dosing schedule: 1, 1.5, 2, 2.5 hours after infection

Data set [10] is described as follows: Tolerance of maximum total dose in the mouse infection experiment. In kind it is in vivo. The conditions noted are these: mice; subcutaneous; maximum total dose 100 mg/kg. On the procedure: as §3, §4, §5
Maximum total dose was 100 mg/kg and this was tolerated by the mice.

Data set [11] has as its target β-lactamase, P. Mirab C889. Briefly: β-Lactamase inhibition, automated chromagenic substrate assay. In kind it is biochemical. Here is the method: as §1, §2
Data set [12] concerns β-lactamase, Ps aerug A. The data set is described as above. In kind it is biochemical. The conditions noted are these: at 50 μg/ml (asterisked). Here is the method: as §1, §2
Where [13] appears, read: E. Coli JT4 β-lactamase, hydroxyamine assay, at 20 μg/ml.
The mark [14] stands for this setting: E. Coli JT4 β-lactamase, hydroxyamine assay.

T1 sequence (P62593 24-286 limits assumed): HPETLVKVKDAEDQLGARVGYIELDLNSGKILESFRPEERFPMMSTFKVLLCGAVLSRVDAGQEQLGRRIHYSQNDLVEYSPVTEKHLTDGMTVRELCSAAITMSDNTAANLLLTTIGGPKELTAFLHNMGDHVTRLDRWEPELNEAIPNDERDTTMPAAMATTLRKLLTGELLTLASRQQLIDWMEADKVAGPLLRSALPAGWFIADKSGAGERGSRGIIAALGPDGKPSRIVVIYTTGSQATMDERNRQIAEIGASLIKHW
T3 sequence (P00807 25-281): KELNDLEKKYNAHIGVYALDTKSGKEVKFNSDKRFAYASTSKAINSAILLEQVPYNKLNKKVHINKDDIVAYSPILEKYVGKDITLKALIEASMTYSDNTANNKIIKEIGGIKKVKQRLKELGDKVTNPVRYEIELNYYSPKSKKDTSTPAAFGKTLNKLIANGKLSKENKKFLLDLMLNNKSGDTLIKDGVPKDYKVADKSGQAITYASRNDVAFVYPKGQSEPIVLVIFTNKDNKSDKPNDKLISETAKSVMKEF
T2 sequence (P05364 21-381): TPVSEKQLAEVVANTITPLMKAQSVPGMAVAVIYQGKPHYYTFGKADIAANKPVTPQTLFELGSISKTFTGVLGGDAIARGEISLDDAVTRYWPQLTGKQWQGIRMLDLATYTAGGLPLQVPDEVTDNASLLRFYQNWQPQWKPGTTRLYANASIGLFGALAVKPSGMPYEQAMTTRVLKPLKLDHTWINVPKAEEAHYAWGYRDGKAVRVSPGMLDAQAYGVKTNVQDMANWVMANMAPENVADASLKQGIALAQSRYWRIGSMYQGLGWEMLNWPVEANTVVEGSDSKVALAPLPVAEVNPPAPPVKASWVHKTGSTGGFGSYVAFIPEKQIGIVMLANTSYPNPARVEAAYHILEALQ

In the case of `CC(O)[C@@H]1C(=O)N2C(C(=O)OCc3ccccc3)=C([S+]([O-])c3ccccc3)C[C@H]12` (relative stereo) [Compound 82, Benzyl trans-6-(1-hydroxyethyl)-7-oxo-3-phenylsulphinyl-1-azabicyclo[3.2.0]hept-2-ene-2-carboxylate], the IC50 is 31.6 µM at β-lactamase, E. Coli JT4 [1] and 46.2 µM in data set [2]. For the same compound, the “concentration of compound for 50% inhibition of enzyme” value in [3] amounted to 2 µg/mL. Moreover, in [4], the inhibition at 50 µg/mL came to 20%.

For the compound `CC[S+]([O-])C1=C(C(=O)OCc2ccccc2)N2C(=O)[C@@H](C(C)(C)O)[C@H]2C1` (relative stereo) [Compound 84, Benzyl 3-ethylsulphinyl-trans-6-(2-hydroxy-2-propyl)-7-oxo-1-azabicyclo[3.2.0]hept-2-ene-2-carboxylate], the inhibition at 20 µg/mL at β-lactamase, E. Coli JT4 [5] (setting [13]) turned out to be 16%. In addition, in data set [6], the IC50 was 10.3 µM. Also, the “concentration of compound for 50% inhibition of enzyme” value at β-lactamase, Ps aerug A [7] (maximum concentration 20 μg/ml) stood at 12.1 µg/mL.

With `CC[S+]([O-])C1=C(C(=O)OCc2ccccc2)N2C(=O)[C@@H](C(C)(C)O)[C@H]2C1` (relative stereo) [Compound 86, Benzyl 3-ethylsulphinyl-trans-6-(2-hydroxy-2-propyl)-7-oxo-1-aza-bicyclo[3.2.0]hept-2-ene-2-carboxylate], the IC50 in data set [6] was 6.62 µM.

Consider `CC[S+]([O-])C1=C(C(=O)OCc2ccccc2)N2C(=O)[C@H](C(C)(C)O)[C@H]2C1` (relative stereo) [Compound 88, Benzyl 3-ethylsulphinyl-cis-6-(2-hydroxy-2-propyl)-7-oxo-1-azabicyclo[3.2.0]hept-2-ene-2-carboxylate], for which the IC50 on β-lactamase, E. Coli JT4 [5] (setting [14]) was 21.2 µM; in data set [6], 21.7 µM. The “amount of inhibition at maximum concentration” value (from here on “amount of inhibition”) came to 13% in data set [8] (at 20 μg/ml) and 23% with β-lactamase, Ps aerug A [7]. Further, the inhibition at 20 µg/mL in [9] came to 19%.

Turning to `CC[S+]([O-])C1=C(C(=O)OCC(=O)c2ccc(Br)cc2)N2C(=O)C(CC=CC(=O)OC)C2C1` (single isomer, unassigned) [Compound 73, p-Bromophenacyl 3-ethylsulphinyl-6-(3-methoxycarbonylprop-2-en-1-yl)-7-oxo-1-azabicyclo[3.2.0]hept-2-ene-2-carboxylate], the inhibition at 20 µg/mL in data set [6] turned out to be 31%. Also, in [8], the “concentration of compound for 50% inhibition of enzyme” value worked out at 1.2 µg/mL.

Take `CC[S+]([O-])C1=C(C(=O)OCc2ccccc2)N2C(=O)CC2C1` (centres unmarked) [Compound 55, Benzyl 3-ethylsulphinyl-7-oxo-1-azabicyclo[3.2.0]hept-2-ene-2-carboxylate]: the inhibition at 20 µg/mL on β-lactamase, E. Coli JT4 [5] amounted to 28%. The “concentration of compound for 50% inhibition of enzyme” value in data set [8] is 4 µg/mL. In the data set with Escherichia coli 8 (Escherichia coli, 8, sc, 2.5 h, mouse i.p. infection with Escherichia coli 8, subcutaneous dosing 1, 1.5, 2, 2.5 hours after infection, total dose, read-out: CD50 Value mg/kg (total dose)), the ED50 stood at 5.2 mg/kg. In addition, the “CD50 Value mg/kg (total dose)” value in the data set with Escherichia coli 8 (mouse i.p. infection with Escherichia coli 8, subcutaneous dosing 1, 1.5, 2, 2.5 hours after infection) is listed as 8.8 mg/kg. For the same compound, the “tolerance of maximum total dose” value in [10] was “tolerated”.

`CC[S+]([O-])C1=C(C(=O)OCc2ccccc2)N2C(=O)CC2C1` (centres unmarked) [Compound 57, Benzyl 3-ethylsulphinyl-7-oxo-1-azabicyclo[3.2.0]hept-2-ene-2-carboxylate]: on β-lactamase, E. Coli JT4 [1], the IC50 was 28.2 µM. For the same compound, the inhibition at 50 µg/mL in [2] was found to be 19%. Moreover, the “amount of inhibition” value in [3] (at 50 μg/ml (asterisked)) is 17%; with β-lactamase, Ps aerug A [12], 47%. In addition, the “concentration of compound for 50% inhibition of enzyme” value in data set [11] amounted to 3.5 µg/mL.

`CC(=O)NCC[S+]([O-])C1=C(C(=O)OCc2ccccc2)N2C(=O)CC2C1` (centres unmarked) [Compound 63, Benzyl 3-(2-acetamidoethylsulphinyl)-7-oxo-1-azabicyclo[3.2.0]hept-2-ene-2-carboxylate]: the inhibition at 20 µg/mL at β-lactamase, E. Coli JT4 [5] (setting [13]) was determined as 29%; in [6], 16%. The “concentration of compound for 50% inhibition of enzyme” value in [8] was determined as 3.3 µg/mL.

As to `CC(=O)Nc1ccc([S+]([O-])C2=C(C(=O)OCc3ccccc3)N3C(=O)CC3C2)cc1` (centres unmarked) [Compound 65, Benzyl 3-p-acetamidophenylsulphinyl-7-oxo-1-azabicyclo[3.2.0]hept-2-ene-2-carboxylate], the IC50 on β-lactamase, E. Coli JT4 [1] is 0.825 µM. In addition, the inhibition at 50 µg/mL turned out to be 47% in data set [2] and 35% in data set [4].

For the compound `CC(=O)Nc1ccc([S+]([O-])C2=C(C(=O)OCc3ccccc3)N3C(=O)CC3C2)cc1` (centres unmarked) [Compound 67, Benzyl 3-p-acetamidophenylsulphinyl-7-oxo-1-azabicyclo[3,2,0]hept-2-ene-2-carboxylate], the IC50 was 1.84 µM on β-lactamase, E. Coli JT4 [1] and 118 µM in data set [2].

As to `COC(=O)C=CCC1C(=O)N2C1CC(Cl)([S+]([O-])c1ccccc1)C2C(=O)OCc1ccccc1` (stereo not drawn) [Compound 68, Benzyl 3-chloro-6-(3-methoxycarbonylprop-2-ene-1-yl)-7-oxo-3-phenylsulphinyl-1-azabicyclo[3.2.0]heptane-2α-carboxylate], the IC50 on β-lactamase, E. Coli JT4 [5] (setting [14]) was 15.9 µM. Also, the inhibition at 20 µg/mL in data set [6] was found to be 25%. Besides, the “concentration of compound for 50% inhibition of enzyme” value in [8] was 0.6 µg/mL.

On to `COC(=O)C=CCC1C(=O)N2C(C(=O)OCc3ccccc3)=C([S+]([O-])c3ccccc3)CC12` (centres unmarked) [Compound 69, Benzyl 6-(3-methoxycarbonylprop-2-en-1-yl)-7-oxo-3-phenylsulphnyl-1-azabicyclo[3.2.0]hept-2-ene-2-carboxylate], for which the IC50 at β-lactamase, E. Coli JT4 [5] (setting [14]) was 26.2 µM. In data set [6], the inhibition at 20 µg/mL is 23%. The “concentration of compound for 50% inhibition of enzyme” value in data set [8] came to 2.4 µg/mL. Also, the “amount of inhibition” value in the data set with β-lactamase, Ps aerug A [7] is reported as 44%.

`COC(=O)C=CCC1C(=O)N2C(C(=O)OCc3ccccc3)=C([S+]([O-])c3ccccc3)CC12` (centres unmarked) [Compound 71, Benzyl 6-(3-methoxycarbonylprop-2-en-1-yl)-7-oxo-3-phenylsulphinyl-1-azabicyclo[3.2.0]hept-2-ene-2-carboxylate]: at β-lactamase, E. Coli JT4 [5] (setting [14]), the IC50 is 18.3 µM. The “concentration of compound for 50% inhibition of enzyme” value in data set [8] was 2.0 µg/mL.

As to `CC[S+]([O-])C1=C(C(=O)OC2OC(=O)c3ccccc32)N2C(=O)C(CC=CC(=O)OC)C2C1` (centres unmarked) [Compound 78, Phthalidyl 3-ethylsulphinyl-6-(3-methoxycarbonylprop-2-en-1-yl)-7-oxo-1-azabicyclo[3.2.0]hept-2-ene-2-carboxylate], at β-lactamase, E. Coli JT4 [5] (setting [13]), the inhibition at 20 µg/mL worked out at 16%. The IC50 in data set [6] is 19.2 µM.

On to `CC[S+]([O-])C1=C(C(=O)OCc2ccccc2)N2C(=O)C(Cc3ccccc3)C2C1` (centres unmarked) [Compound 80, Benzyl 6-benzyl-3-ethylsulphinyl-7-oxo-1-azabicyclo[3.2.0]hept-2-ene-2-carboxylate], for which the IC50 is 20.8 µM on β-lactamase, E. Coli JT4 [1] and 52 µM in data set [2]. Besides, the “concentration of compound for 50% inhibition of enzyme” value in data set [3] was 24 µg/mL.
